From US20060263427A1, “Quinine formulations” (priority 2005, published 2006)
Where a name gives a salt, the structure may show the parent alone. Read-outs that look alike come from different tables or passages of the source.

Key:
clinical [1] = details: human, plasma, oral
clinical [2] = details: human, in vivo
[3] = fasted, non-transformed data, least squares mean
[4] = 324 mg, 1 capsule, fasted
[5] = in vivo
[6] = Mean plasma quinine concentration over 24 hours after single oral dose of Quinine Sulfate (Example 6, Studies 1 and 2); assay type: in vivo, human; details: for concentration at 0 h / concentration at 2 h / concentration at 4 h / concentration at 6 h / concentration at 12 h / concentration at 24 h: both sexes, human, plasma, oral
[7] = QTc interval measurements (ECG) over 24 hours after single oral dose of Quinine Sulfate (Example 6, Studies 1 and 2); assay type: in vivo, human
[8] = non-transformed data, least squares mean
[9] = 324 mg, Study 1, B: 324 mg capsule, fed
[10] = 324 mg, Study 2, C: 324 mg capsule, fasting
[11] = 648 mg, Study 2, D: 648 mg (two capsules), fasting

Compound: C=C[C@H]1C[N@@]2CC[C@H]1C[C@H]2[C@H](O)c1ccnc2ccc(OC)cc12 [Quinine Sulfate, cinchonan-9-ol, 6′-methoxy-, (8α,9R)-, sulfate (2:1)]
- Tmax (clinical [1]; 260 mg): 2.61 h
- AUC0-t (clinical [1]; 324 mg): 30300 ng·h/mL
- AUC(0-inf) (clinical [1]; 324 mg): 32100 ng·h/mL
- Cmax (clinical [1]; 324 mg): 2280 ng/mL
- Tmax (clinical [1]; 324 mg): 2.75 h
- Tmax (clinical [2]; 324 mg): 2.78 h
- Tmax (clinical [2]; 648 mg): 2.8 h
- AUC(0-inf) (clinical [2]; 648 mg, AUC0-INF): 59200 ng·h/mL
- AUC0-t (clinical [2]; 648 mg, AUC0-t): 54400 ng·h/mL
- Cmax (clinical [2]; 648 mg, Cmax): 3240 ng/mL
- kelim ([3]; 324 mg, 1 capsule): 0.0592
- kelim ([3]; 648 mg, 2 capsules): 0.0572
- Cmax ([4]; Ln-transformed data, geometric mean): 2242.70 ng/mL
- AUC0-INF [4, 8]: 33280.89 ng·h/mL
- AUC0-t [4, 8]: 31298.12 ng·h/mL
- AUC0-INF ([5]; human, 648 mg): 61817.27 ng·h/mL
- AUC0-t ([5]; human, 648 mg): 56394.65 ng·h/mL
- Cmax ([5]; human, 648 mg): 3174.89 ng/mL
- dose proportionality of AUCT and AUCinf [5]: proportional increase
- dose proportionality of Cmax [5]: nonlinear dose proportionality
- Mean Plasma Concentration ([6]; Study 2, C: 324 mg capsule, fasting, 0 hours): 0; ng/ml
- concentration at 0 h ([6]; 324 mg, Study 1, B: 324 mg capsule, fed, 0 hours): 0 ng/mL
- concentration at 2 h [6, 9]: 835 ng/mL
- concentration at 4 h [6, 9]: 2260 ng/mL
- concentration at 6 h [6, 9]: 2010 ng/mL
- concentration at 12 h [6, 9]: 1220 ng/mL
- concentration at 24 h [6, 9]: 543 ng/mL
- concentration at 2 h [6, 10]: 1860 ng/mL
- concentration at 4 h [6, 10]: 1880 ng/mL
- concentration at 6 h [6, 10]: 1710 ng/mL
- concentration at 12 h [6, 10]: 994 ng/mL
- concentration at 24 h [6, 10]: 475 ng/mL
- concentration at 0 h ([6]; 648 mg, Study 2, D: 648 mg (two capsules), fasting, 0 hours): 0 ng/mL
- concentration at 2 h [6, 11]: 2810 ng/mL
- concentration at 4 h [6, 11]: 2950 ng/mL
- concentration at 6 h [6, 11]: 2720 ng/mL
- concentration at 12 h [6, 11]: 1700 ng/mL
- concentration at 24 h [6, 11]: 912 ng/mL
- subjects with significant prolongations in QTc interval (>450 msec) ([7]; 50 subjects, single oral doses 324 mg or 648 mg): seven
- relation of mean QTc value to plasma concentration ([7]; single oral doses, Table 1): an increase in the mean QTc value was found to correspond with the peak quinine plasma concentration
